What is called IC50 is the concentration needed to halve the response being measured. A lower IC50 goes with greater potency in that assay.

For the assay, the target named is T1, endothelial lipase (EL) (Homo sapiens, UniProt Q9Y5X9).
T1 construct: transformed by RAGE technology (Athersys) to overexpress endogenous EL; endogenous in cells; conditioned medium used as the enzyme source
T1 sequence (Q9Y5X9 21-500): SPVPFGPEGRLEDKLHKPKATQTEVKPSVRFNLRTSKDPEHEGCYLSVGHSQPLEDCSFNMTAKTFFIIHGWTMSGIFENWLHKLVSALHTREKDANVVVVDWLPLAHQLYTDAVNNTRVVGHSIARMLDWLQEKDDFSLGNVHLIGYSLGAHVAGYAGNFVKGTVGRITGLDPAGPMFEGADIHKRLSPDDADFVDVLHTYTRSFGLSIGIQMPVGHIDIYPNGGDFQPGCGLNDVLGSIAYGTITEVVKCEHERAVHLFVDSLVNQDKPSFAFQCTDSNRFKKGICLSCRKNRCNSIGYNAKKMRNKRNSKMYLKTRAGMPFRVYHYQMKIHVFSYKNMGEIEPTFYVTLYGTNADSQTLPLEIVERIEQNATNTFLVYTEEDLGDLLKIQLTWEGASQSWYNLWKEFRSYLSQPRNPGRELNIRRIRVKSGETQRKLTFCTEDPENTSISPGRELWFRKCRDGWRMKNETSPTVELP
As to the kind of experiment: Endothelial lipase (EL) enzymatic assay with fluorescent substrate A10070 in DMPG vesicles. As to conditions: conditioned media from HT-1080 cells overexpressing endogenous EL, 20 min preincubation at 37° C. It is filed as biochemical. How it is done: Endothelial lipase activity was measured using a fluorescent substrate, A10070, (Invitrogen, CA) doped into an artificial vesicle containing DMPG (Avanti Polar Lipids) as the excipient. Vesicles were prepared by combining 285 μL of 1 mM DMPG in a 1:1 mixture of MeOH and CHCl3 with 15 μL of 1 mM A10070 in a 1:1 mixture of MeOH and CHCl3. The mixture was dried under nitrogen and resuspended in 150 μL of 50 mM HEPES pH 8.0 buffer containing 100 mM NaCl and 0.2 mM EDTA. The sample was allowed to sit at rt for 15 min and then was sonicated 3×4 mins on ice with a Branson Sonicator using duty cycle 1. This preparation provides vesicles with a mole fraction of 0.05 for the FRET substrate.
The enzymatic assay was measured using white, opaque 96-well half area plates. Each well contained 60 μL of assay buffer (50 mM HEPES pH 8.0, 50 mM NaCl and 1 mM CaCl2) and 2 ul of a DMSO solution containing compound of interest. Conditioned media obtained from HT-1080 cells, which were transformed by RAGE technology (Athersys) to overexpress endogenous EL, was added and the reaction was allowed to incubate for 20 min at 37° C. with gentle agitation. The reaction was started by the addition of 20 μL of a 1:4 dilution of vesicles. The final total reaction volume was 100 μL. The reaction rates were measured on a Gemini plate reader with an excitation wavelength of 488 nm and a emission of 530 nm. Readings were taken every 20 seconds for 10 min with agitation between each reading. The slope of the linear portion of the readout was used to calculate the rate of the reaction.
The exemplified examples disclosed in the present invention were tested in the EL assay described above and found having EL inhibitory activity. A range of EL IC50 values of ≦10 μM (10000 nM) was observed.
Consider `C[C@H](CCc1cccc(C(F)(F)F)c1)NC(=O)c1[nH]c(=O)[nH]c(=O)c1N` [Example 1, (R)-5-Amino-2,6-dioxo-N-(4-(3-(trifluoromethyl)phenyl)butan-2-yl)-1,2,3,6-tetrahydropyrimidine-4-carboxamide], for which the IC50 turned out to be 0.08 µM.

For `Nc1c(C(=O)NCCCc2ccc(Cl)c(Cl)c2)[nH]c(=O)[nH]c1=O` [Example 2, 5-amino-N-(3-(3,4-dichlorophenyl)propyl)-2,6-dioxo-1,2,3,6-tetrahydropyrimidine-4-carboxamide], the 50% inhibitory concentration (IC50) turned out to be 0.149 µM.

The compound `C[C@@H](NC(=O)c1[nH]c(=O)[nH]c(=O)c1N)c1ccc2ccccc2c1` [Example 14, (R)-5-amino-N-(1-(naphthalen-2-yl)ethyl)-2,6-dioxo-1,2,3,6-tetrahydropyrimidine-4-carboxamide] registered an IC50 of 7.51 µM.

Compound `CC(CNC(=O)c1[nH]c(=O)[nH]c(=O)c1N)Oc1ccc(F)cc1` (stereo not drawn) [Example 15, 5-amino-N-(2-(4-fluorophenoxy)propyl)-2,6-dioxo-1,2,3,6-tetrahydropyrimidine-4-carboxamide] registered an IC50 of 9.93 µM.

`Nc1c(C(=O)NCc2cccc(-c3ccc(F)cc3)c2)[nH]c(=O)[nH]c1=O` [Example 25, 5-amino-N-((4′-fluorobiphenyl-3-yl)methyl)-2,6-dioxo-1,2,3,6-tetrahydropyrimidine-4-carboxamide] gave an IC50 of 4.25 µM.

Regarding `Nc1c(C(=O)NCc2cccc(-n3cnc4ccccc43)c2)[nH]c(=O)[nH]c1=O` [Example 28, N-(3-(1H-benzo[d]imidazol-1-yl)benzyl)-5-amino-2,6-dioxo-1,2,3,6-tetrahydropyrimidine-4-carboxamide], the IC50 came to 2.2 µM.

The compound `Nc1c(C(=O)NC[C@H]2C[C@@H]2c2ccc(F)cc2)[nH]c(=O)[nH]c1=O` [Example 29, 5-amino-N-(((1S,2S)-2-(4-fluorophenyl)cyclopropyl)methyl)-2,6-dioxo-1,2,3,6-tetrahydropyrimidine-4-carboxamide] registered an IC50 of 7.41 µM.

`Nc1c(C(=O)NCc2c[nH]nc2-c2ccccc2)[nH]c(=O)[nH]c1=O` [Example 30, 5-amino-2,6-dioxo-N-((3-phenyl-1H-pyrazol-4-yl)methyl)-1,2,3,6-tetrahydropyrimidine-4-carboxamide] returned an IC50 of 0.612 µM.

Regarding `Nc1c(C(=O)NCc2ccc(Oc3ccccc3)cc2)[nH]c(=O)[nH]c1=O` [Example 32, 5-amino-2,6-dioxo-N-(4-phenoxybenzyl)-1,2,3,6-tetrahydropyrimidine-4-carboxamide], the IC50 worked out at 0.703 µM.

Take `CC(C)(C)OC(=O)N1CCN(c2cccc(CNC(=O)c3[nH]c(=O)[nH]c(=O)c3N)c2)CC1` [Example 33, tert-butyl 4-(3-((5-amino-2,6-dioxo-1,2,3,6-tetrahydro-pyrimidine-4-carboxamido)methyl)phenyl)piperazine-1-carboxylate]: it took 0.266 µM to reach half-maximal inhibition (IC50).

In turn, `Nc1c(C(=O)NCC2CCN(S(=O)(=O)c3ccc(Cl)c(Cl)c3)CC2)[nH]c(=O)[nH]c1=O` [Example 37, 5-amino-N-((1-(3,4-dichloro-phenylsulfonyl)piperidin-4-yl)methyl)-2,6-dioxo-1,2,3,6-tetrahydropyrimidine-4-carboxamide] registered an IC50 of 3.17 µM.

Regarding `Nc1c(C(=O)NCC2CCN(C(=O)c3ccccc3)C2)[nH]c(=O)[nH]c1=O` (stereo not drawn) [Example 44, 5-amino-N-((1-benzoylpyrrolidin-3-yl)methyl)-2,6-dioxo-1,2,3,6-tetrahydropyrimidine-4-carboxamide], the 50% inhibitory concentration (IC50) is 3.07 µM.

The compound `COc1cc(C)c(OC)c2c1CC(CNC(=O)c1[nH]c(=O)[nH]c(=O)c1N)CC2` (stereo not drawn) [Example 45, 5-amino-N-((5,8-dimethoxy-6-methyl-1,2,3,4-tetra-hydronaphthalen-2-yl)methyl)-2,6-dioxo-1,2,3,6-tetrahydropyrimidine-4-carboxamide] yielded an IC50 of 0.078 µM.

Regarding `Nc1c(C(=O)NCC2Cc3ccccc3C(c3ccccc3)C2)[nH]c(=O)[nH]c1=O` (stereo not drawn) [Example 46, 5-amino-2,6-dioxo-N-((4-phenyl-1,2,3,4-tetrahydronaphthalen-2-yl)methyl)-1,2,3,6-tetrahydropyrimidine-4-carboxamide], the IC50 worked out at 0.207 µM.

Regarding `Nc1c(C(=O)NCC2CCc3nn(Cc4ccccc4)cc3C2)[nH]c(=O)[nH]c1=O` (stereo not drawn) [Example 50, 5-amino-N-((2-benzyl-4,5,6,7-tetrahydro-2H-indazol-5-yl)methyl)-2,6-dioxo-1,2,3,6-tetrahydropyrimidine-4-carboxamide], half-maximal inhibition (IC50) required 2.48 µM.

Compound `C[C@H](COc1c(Cl)cccc1Cl)NC(=O)c1[nH]c(=O)[nH]c(=O)c1N` [Example 54, (R)-5-amino-N-(1-(2,6-dichloro-phenoxy)propan-2-yl)-2,6-dioxo-1,2,3,6-tetra-hydropyrimidine-4-carboxamide] registered an IC50 of 0.011 µM.

For the compound `C[C@H](COc1ccc(Cl)c2c1CCC2)NC(=O)c1[nH]c(=O)[nH]c(=O)c1N` [Example 65, (R)-5-amino-N-(1-(7-chloro-2,3-dihydro-1H-inden-4-yloxy)propan-2-yl)-2,6-dioxo-1,2,3,6-tetrahydropyrimidine-4-carboxamide], the midpoint of inhibition, the IC50, lay at 0.223 µM.

Consider `C[C@H](COc1ccc(Cl)cc1F)NC(=O)c1[nH]c(=O)[nH]c(=O)c1N` [Example 72, (R)-5-amino-N-(1-(4-chloro-2-fluoro-phenoxy)propan-2-yl)-2,6-dioxo-1,2,3,6-tetrahydropyrimidine-4-carboxamide], for which half-maximal inhibition (IC50) was put at 1.39 µM.

Take `Cc1nc2cc(OC[C@@H](C)NC(=O)c3[nH]c(=O)[nH]c(=O)c3N)ccc2s1` [Example 84, (R)-5-amino-N-(1-(2-methyl-benzo[d]thiazol-5-yloxy)propan-2-yl)-2,6-dioxo-1,2,3,6-tetrahydropyrimidine-4-carboxamide]: the IC50 is 2 µM.

As to `C[C@H](COc1ccc(Cl)cc1C(=O)c1ccccc1)NC(=O)c1[nH]c(=O)[nH]c(=O)c1N` [Example 88, (R)-5-amino-N-(1-(2-benzoyl-4-chlorophenoxy)propan-2-yl)-2,6-dioxo-1,2,3,6-tetrahydropyrimidine-4-carboxamide], the IC50 worked out at 0.509 µM.

In the case of `C[C@H](COc1ccc(S(C)(=O)=O)cc1)NC(=O)c1[nH]c(=O)[nH]c(=O)c1N` [Example 103, (R)-5-amino-N-(1-(4-(methylsulfonyl)phenoxy)pro-pan-2-yl)-2,6-dioxo-1,2,3,6-tetrahydropyrimidine-4-carboxamide], the IC50 was found to be 0.559 µM.

`C[C@H](COc1ccccc1-c1nnco1)NC(=O)c1[nH]c(=O)[nH]c(=O)c1N` [Example 115, (R)-N-(1-(2-(1,3,4-oxadiazol-2-yl)phenoxy)propan-2-yl)-5-amino-2,6-dioxo-1,2,3,6-tetra-hydropyrimidine-4-carboxamide] registered an IC50 of 4.99 µM.

As to `C[C@H](COc1ccc2c(c1)NC(=O)CC2)NC(=O)c1[nH]c(=O)[nH]c(=O)c1N` [Example 120, (R)-5-amino-2,6-dioxo-N-(1-(2-oxo-1,2,3,4-tetrahydroquinolin-7-yloxy)propan-2-yl)-1,2,3,6-tetrahydropyrimidine-4-carboxamide], it took 5.4 µM to reach half-maximal inhibition (IC50).

On to `C[C@@H](NC(=O)c1[nH]c(=O)[nH]c(=O)c1N)c1cccc(-c2ccn(Cc3ccccc3)n2)c1` [Example 136, (R)-5-amino-N-(1-(3-(1-benzyl-1H-pyrazol-3-yl)phenyl)ethyl)-2,6-dioxo-1,2,3,6-tetrahydro-pyrimidine-4-carboxamide], for which it took 0.02 µM to reach half-maximal inhibition (IC50).

Values taken from US9394260B2, “Pyrimidinone carboxamide inhibitors of endothelial lipase” (BRISTOL-MYERS SQUIBB COMPANY, priority 2012, dated 2016).
